Measurements taken from patent US20090233796A1, “HERBICIDAL COMPOSITION” (SYNGENTA CROP PROTECTION, INC., priority 2004, published 2009).

How the values were obtained:
Format in all cases: in vivo
[1] = tested on: CONYZA SP.; experiment: Compound (A) with paraquat, weed plots; conditions: 5 DAA
Procedure: (§1) In these tests, various weeds were treated with paraquat alone at rates equivalent to 700 g per hectare and 840 g per hectare, compound (A) alone at rates equivalent to 10 g per hectare and 20 g per hectare, and with a mixture of paraquat and compound (A) at rates equivalent to the sum of these. The compositions were formulated as an emulsifyable concentrate (EC).
(§2) The results in the table under each application are the percentage of the weeds plants that were killed.

[2] = tested on: CYPERUS ROTUNDUS; experiment: Compound (A) with paraquat, weed plots; conditions: 56 DAA, No. 1.11
Procedure: as §1, §2

[3] = tested on: DIGITARIA CILIARIS; experiment: Compound (A) with paraquat, weed plots; conditions: 20 g/ha; 51 DAA; No. 1.7
Procedure: as §1, §2

[4] = tested on: E[…]-GALLI; experiment: Compound (A) with paraquat, weed plots; conditions: 51 DAA, No. 1.8
Procedure: as §1, §2

[5] = tested on: LAMIUM PURPUREUM; experiment: Compound (A) with paraquat, weed plots; conditions: 2 DAA, No. 1.5
Procedure: as §1, §2

[6] = tested on: LOLIUM RIGIDUM; experiment: Compound (A) with paraquat, weed plots; conditions: 41 DAA, No. 1.4
Procedure: as §1, §2

[7] = tested on: SETARIA SP.; experiment: Compound (A) with paraquat, weed plots; conditions: 27 DAA, No. 1.2
Procedure: as §1, §2

[8] = tested on: SETARIA VIRIDIS; experiment: Compound (A) with paraquat, weed plots; conditions: 43 DAA, No. 1.3
Procedure: as §1, §2

[9] = tested on: SONCHUS ASPER; experiment: Compound (A) with paraquat, weed plots; conditions: 32 DAA, No. 1.10
Procedure: as §1, §2

[10] = tested on: VERONICA PERSICA; experiment: Compound (A) with paraquat, weed plots; conditions: 69 DAA, No. 1.6
Procedure: as §1, §2

[11] = tested on: ABUTILON THEOPHRASTI; experiment: Compound (A) with nicosulfuron, weed plots; conditions: 27 DAA, No. 3.13
Procedure: (§3) In these tests, various weeds were treated with nicosulfuron alone at a rate equivalent to 35 g per hectare, […] and Compound (A) at rates equivalent to the sum of these. The compositions were formulated as an emulsifyable concentrate (EC).
(§4) The results in the table under each application are the percentage of the plants that were killed.

[12] = tested on: AMBROSIA TRIFIDA; experiment: Compound (A) with nicosulfuron, weed plots; conditions: 28 DAA, No. 3.15
Procedure: as §3, §4

[13] = tested on: BRACHIARIA PLATYPHYLLA; experiment: Compound (A) with nicosulfuron, weed plots
Procedure: as §3, §4

[14] = tested on: CYPERUS ESCULENTUS; experiment: Compound (A) with nicosulfuron, weed plots
Procedure: as §3, §4

[15] = tested on: C[…].; experiment: Compound (A) with nicosulfuron, weed plots; conditions: 5 DAA, No. 3.8
Procedure: as §3, §4

[16] = tested on: DIGITARIA SANGUINALIS; experiment: Compound (A) with nicosulfuron, weed plots
Procedure: as §3, §4

[17] = tested on: IPOMOEA SP.; experiment: Compound (A) with nicosulfuron, weed plots; conditions: 5 DAA, No. 3.10
Procedure: as §3, §4

[18] = tested on: SESBANIA EXALTATA; experiment: Compound (A) with nicosulfuron, weed plots
Procedure: as §3, §4

[19] = tested on: SETARIA SP.; experiment: Compound (A) with nicosulfuron, weed plots; conditions: 21 DAA, No. 3.4
Procedure: as §3, §4

[20] = tested on: SETARIA VIRIDIS; experiment: Compound (A) with nicosulfuron, weed plots; conditions: 4 DAA, No. 3.11
Procedure: as §3, §4

[21] = tested on: […]; experiment: Compound (A) with nicosulfuron, weed plots; conditions: 58 DAA, No. 3.12
Procedure: as §3, §4

[22] = tested on: Cyperus; experiment: Compound (A) with sulcotrione, weed plots; conditions: 14 DAA, Trial 5.1
Procedure: In these tests, various weeds were treated with sulcotrione alone at an application rate equivalent to 1420 g per hectare, […] and Compound (A) at rates equivalent to the sum of these. The compositions were formulated as an emulsifyable concentrate (EC).
as §4

## CCOC(=O)COc1ncccc1Oc1cc(-n2c(=O)cc(C(F)(F)F)n(C)c2=O)c(F)cc1Cl [Compound (A)]
[1]; 10 g/ha, No. 1.1
  percentage of the weeds plants that were killed: 37%
[1]; 10 g/ha, No. 1.9
  percentage of the weeds plants that were killed: 37%
[1]; 20 g/ha, No. 1.1
  percentage of the weeds plants that were killed: 40%
[1]; 20 g/ha, No. 1.9
  percentage of the weeds plants that were killed: 40%
[2]; 10 g/ha
  percentage of the weeds plants that were killed: 0%
[2]; 20 g/ha
  percentage of the weeds plants that were killed: 0%
[3]
  percentage of the weeds plants that were killed: 0%
[4]; 10 g/ha
  percentage of the weeds plants that were killed: 0%
[4]; 20 g/ha
  percentage of the weeds plants that were killed: 0%
[5]; 10 g/ha
  percentage of the weeds plants that were killed: 30%
[5]; 20 g/ha
  percentage of the weeds plants that were killed: 33%
[6]; 10 g/ha
  percentage of the weeds plants that were killed: 27%
[6]; 20 g/ha
  percentage of the weeds plants that were killed: 47%
[7]; 10 g/ha
  percentage of the weeds plants that were killed: 0%
[7]; 20 g/ha
  percentage of the weeds plants that were killed: 25%
[8]; 10 g/ha
  percentage of the weeds plants that were killed: 0%
[8]; 20 g/ha
  percentage of the weeds plants that were killed: 23%
[9]; 10 g/ha
  percentage of the weeds plants that were killed: 60%
[9]; 20 g/ha
  percentage of the weeds plants that were killed: 55%
[10]; 10 g/ha
  percentage of the weeds plants that were killed: 25%
[10]; 20 g/ha
  percentage of the weeds plants that were killed: 100%
[11]; 5 g/ha
  percentage of the plants that were killed: 0%
[11]; 10 g/ha
  percentage of the plants that were killed: 98%
[11]; 20 g/ha
  percentage of the plants that were killed: 99%
[12]; 5 g/ha
  percentage of the plants that were killed: 50%
[12]; 10 g/ha
  percentage of the plants that were killed: 50%
[12]; 20 g/ha
  percentage of the plants that were killed: 60%
[13]; 5 g/ha, 24 DAA, No. 3.16
  percentage of the plants that were killed: 0%
[13]; 5 g/ha, 30 DAA, No. 3.17
  percentage of the plants that were killed: 0%
[13]; 10 g/ha, 24 DAA, No. 3.16
  percentage of the plants that were killed: 0%
[13]; 10 g/ha, 30 DAA, No. 3.17
  percentage of the plants that were killed: 0%
[13]; 20 g/ha, 24 DAA, No. 3.16
  percentage of the plants that were killed: 0%
[13]; 20 g/ha, 30 DAA, No. 3.17
  percentage of the plants that were killed: 0%
[14]; 5 g/ha, 7 DAA, No. 3.7
  percentage of the plants that were killed: 40%
[14]; 5 g/ha, 12 DAA, No. 3.9
  percentage of the plants that were killed: 0%
[14]; 10 g/ha, 7 DAA, No. 3.7
  percentage of the plants that were killed: 60%
[14]; 10 g/ha, 12 DAA, No. 3.9
  percentage of the plants that were killed: 0%
[14]; 20 g/ha, 7 DAA, No. 3.7
  percentage of the plants that were killed: 60%
[14]; 20 g/ha, 12 DAA, No. 3.9
  percentage of the plants that were killed: 30%
[15]; 5 g/ha
  percentage of the plants that were killed: 20%
[15]; 10 g/ha
  percentage of the plants that were killed: 30%
[15]; 20 g/ha
  percentage of the plants that were killed: 95%
[16]; 5 g/ha, 4 DAA, No. 3.6
  percentage of the plants that were killed: 20%
[16]; 5 g/ha, 5 DAA, No. 3.14
  percentage of the plants that were killed: 25%
[16]; 5 g/ha, 21 DAA, No. 3.5
  percentage of the plants that were killed: 50%
[16]; 10 g/ha, 4 DAA, No. 3.6
  percentage of the plants that were killed: 90%
[16]; 10 g/ha, 5 DAA, No. 3.14
  percentage of the plants that were killed: 50%
[16]; 10 g/ha, 21 DAA, No. 3.5
  percentage of the plants that were killed: 80%
[16]; 20 g/ha, 4 DAA, No. 3.6
  percentage of the plants that were killed: 98%
[16]; 20 g/ha, 5 DAA, No. 3.14
  percentage of the plants that were killed: 99%
[16]; 20 g/ha, 21 DAA, No. 3.5
  percentage of the plants that were killed: 93%
[17]; 5 g/ha
  percentage of the plants that were killed: 30%
[17]; 10 g/ha
  percentage of the plants that were killed: 80%
[17]; 20 g/ha
  percentage of the plants that were killed: 95%
[18]; 5 g/ha, 44 DAA, No. 3.3
  percentage of the plants that were killed: 75%
[18]; 5 g/ha, 45 DAA, No. 3.2
  percentage of the plants that were killed: 65%
[18]; 10 g/ha, 44 DAA, No. 3.3
  percentage of the plants that were killed: 85%
[18]; 10 g/ha, 45 DAA, No. 3.2
  percentage of the plants that were killed: 85%
[18]; 20 g/ha, 44 DAA, No. 3.3
  percentage of the plants that were killed: 90%
[18]; 20 g/ha, 45 DAA, No. 3.2
  percentage of the plants that were killed: 90%
[19]; 5 g/ha
  percentage of the plants that were killed: 50%
[19]; 10 g/ha
  percentage of the plants that were killed: 80%
[19]; 20 g/ha
  percentage of the plants that were killed: 93%
[20]; 5 g/ha
  percentage of the plants that were killed: 40%
[20]; 10 g/ha
  percentage of the plants that were killed: 70%
[20]; 20 g/ha
  percentage of the plants that were killed: 85%
[21]; 5 g/ha
  percentage of the plants that were killed: 50%
[21]; 10 g/ha
  percentage of the plants that were killed: 70%
[21]; 20 g/ha
  percentage of the plants that were killed: 97%
[22]; 1.25 g/ha
  percentage of the plants that were killed: 50%
[22]; 5 g/ha
  percentage of the plants that were killed: 50%
